Source: publication PMC6773804, “Mapping of a Regulatory Site of the Escherichia coli ADP-Glucose Pyrophosphorylase” (Frontiers in Molecular Biosciences, 2019)
Like-named read-outs stand apart in the source and are kept apart here.

Key:
[1] = molecular target: T1, E. coli ADP-glucose pyrophosphorylase (ADP-Glc PPase) (Escherichia coli, UniProt P0A6V1); assay: thermal shift assay, SYPRO Orange; assay type: binding; conditions: read-out: dTm at 1 mM
T1 construct: gene glgC
T1 sequence (P0A6V1 1-431): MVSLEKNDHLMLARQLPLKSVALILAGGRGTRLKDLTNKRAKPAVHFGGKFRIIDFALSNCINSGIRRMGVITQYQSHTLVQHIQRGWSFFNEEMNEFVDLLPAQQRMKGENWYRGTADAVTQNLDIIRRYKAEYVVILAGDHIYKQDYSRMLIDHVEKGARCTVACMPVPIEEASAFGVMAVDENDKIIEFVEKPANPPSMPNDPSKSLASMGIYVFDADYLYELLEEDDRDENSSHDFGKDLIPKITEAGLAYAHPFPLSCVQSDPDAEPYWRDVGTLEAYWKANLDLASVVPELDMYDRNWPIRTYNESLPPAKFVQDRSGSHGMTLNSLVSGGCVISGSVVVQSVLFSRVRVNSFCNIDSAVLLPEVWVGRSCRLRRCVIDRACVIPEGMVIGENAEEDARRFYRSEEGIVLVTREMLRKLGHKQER

[2] = molecular target: T1, E. coli ADP-glucose pyrophosphorylase (ADP-Glc PPase); assay: ADP-glucose synthesis, colorimetric phosphate detection after pyrophosphatase; assay type: biochemical
Description: (§1) ADP-glucose synthesis, colorimetric phosphate detection after pyrophosphatase on E. coli ADP-glucose pyrophosphorylase (ADP-Glc PPase)

[3] = molecular target: T2, E. coli ADP-glucose pyrophosphorylase (ADP-Glc PPase) (Escherichia coli, UniProt P0A6V1, R130A); assay: as above; assay type: biochemical
T2 construct: gene glgC
T2 sequence (P0A6V1 1-431 R130A): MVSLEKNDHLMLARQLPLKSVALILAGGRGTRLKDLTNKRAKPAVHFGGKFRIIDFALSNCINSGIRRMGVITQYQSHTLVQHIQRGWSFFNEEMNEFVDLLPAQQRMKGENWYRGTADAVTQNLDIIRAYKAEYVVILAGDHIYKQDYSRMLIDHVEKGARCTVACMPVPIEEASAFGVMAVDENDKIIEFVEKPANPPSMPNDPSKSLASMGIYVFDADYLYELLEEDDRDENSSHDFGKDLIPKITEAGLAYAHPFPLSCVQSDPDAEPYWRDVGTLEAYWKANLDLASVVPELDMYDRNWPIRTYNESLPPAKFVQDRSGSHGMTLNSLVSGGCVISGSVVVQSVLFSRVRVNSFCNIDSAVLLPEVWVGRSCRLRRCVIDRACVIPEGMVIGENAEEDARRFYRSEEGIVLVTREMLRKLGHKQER
Description: as §1

[4] = molecular target: T3, E. coli ADP-glucose pyrophosphorylase (ADP-Glc PPase) (Escherichia coli, UniProt P0A6V1, R353A); assay: as above; assay type: biochemical
T3 construct: gene glgC
T3 sequence (P0A6V1 1-431 R353A): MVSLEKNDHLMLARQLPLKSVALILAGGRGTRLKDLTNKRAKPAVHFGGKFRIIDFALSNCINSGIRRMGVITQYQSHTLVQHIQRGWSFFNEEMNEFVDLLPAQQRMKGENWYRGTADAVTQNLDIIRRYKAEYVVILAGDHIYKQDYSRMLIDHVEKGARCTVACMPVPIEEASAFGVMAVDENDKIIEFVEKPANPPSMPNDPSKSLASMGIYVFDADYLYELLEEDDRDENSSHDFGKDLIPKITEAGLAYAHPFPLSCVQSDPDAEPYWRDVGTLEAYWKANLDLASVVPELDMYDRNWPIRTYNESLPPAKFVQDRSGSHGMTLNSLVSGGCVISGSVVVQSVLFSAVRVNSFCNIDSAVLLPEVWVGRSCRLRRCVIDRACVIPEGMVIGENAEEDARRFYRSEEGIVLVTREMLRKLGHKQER
Description: as §1

[5] = molecular target: T4, E. coli ADP-glucose pyrophosphorylase (ADP-Glc PPase) (Escherichia coli, UniProt P0A6V1, R386A); assay: as above; assay type: biochemical
T4 construct: gene glgC
T4 sequence (P0A6V1 1-431 R386A): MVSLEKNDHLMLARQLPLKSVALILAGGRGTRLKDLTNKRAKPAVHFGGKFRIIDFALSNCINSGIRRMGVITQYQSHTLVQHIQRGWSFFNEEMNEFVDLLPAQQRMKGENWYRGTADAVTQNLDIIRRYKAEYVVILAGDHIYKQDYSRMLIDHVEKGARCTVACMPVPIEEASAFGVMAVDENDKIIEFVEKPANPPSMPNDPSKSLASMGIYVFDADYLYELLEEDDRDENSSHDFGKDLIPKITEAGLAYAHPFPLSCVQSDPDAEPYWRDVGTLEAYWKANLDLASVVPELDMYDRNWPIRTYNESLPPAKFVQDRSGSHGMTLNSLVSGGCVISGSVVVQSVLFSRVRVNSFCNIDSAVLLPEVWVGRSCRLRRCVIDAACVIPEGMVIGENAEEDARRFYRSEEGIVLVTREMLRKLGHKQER
Description: as §1

[6] = molecular target: T5, E. coli ADP-glucose pyrophosphorylase (ADP-Glc PPase) (Escherichia coli, UniProt P0A6V1, R419A); assay: as above; assay type: biochemical
T5 construct: gene glgC
T5 sequence (P0A6V1 1-431 R419A): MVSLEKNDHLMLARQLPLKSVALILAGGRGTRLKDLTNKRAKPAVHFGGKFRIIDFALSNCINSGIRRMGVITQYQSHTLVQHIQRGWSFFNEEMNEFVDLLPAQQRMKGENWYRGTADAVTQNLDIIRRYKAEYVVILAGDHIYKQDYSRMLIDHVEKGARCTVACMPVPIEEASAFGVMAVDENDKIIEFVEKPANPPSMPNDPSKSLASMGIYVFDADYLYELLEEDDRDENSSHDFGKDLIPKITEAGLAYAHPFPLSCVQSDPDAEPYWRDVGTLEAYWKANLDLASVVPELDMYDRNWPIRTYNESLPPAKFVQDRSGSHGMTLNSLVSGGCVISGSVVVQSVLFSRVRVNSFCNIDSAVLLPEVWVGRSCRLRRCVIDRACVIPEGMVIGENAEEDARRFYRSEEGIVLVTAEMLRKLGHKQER
Description: as §1

[7] = molecular target: T6, E. coli ADP-glucose pyrophosphorylase (ADP-Glc PPase) (Escherichia coli, UniProt P0A6V1, R423A); assay: as above; assay type: biochemical
T6 construct: gene glgC
T6 sequence (P0A6V1 1-431 R423A): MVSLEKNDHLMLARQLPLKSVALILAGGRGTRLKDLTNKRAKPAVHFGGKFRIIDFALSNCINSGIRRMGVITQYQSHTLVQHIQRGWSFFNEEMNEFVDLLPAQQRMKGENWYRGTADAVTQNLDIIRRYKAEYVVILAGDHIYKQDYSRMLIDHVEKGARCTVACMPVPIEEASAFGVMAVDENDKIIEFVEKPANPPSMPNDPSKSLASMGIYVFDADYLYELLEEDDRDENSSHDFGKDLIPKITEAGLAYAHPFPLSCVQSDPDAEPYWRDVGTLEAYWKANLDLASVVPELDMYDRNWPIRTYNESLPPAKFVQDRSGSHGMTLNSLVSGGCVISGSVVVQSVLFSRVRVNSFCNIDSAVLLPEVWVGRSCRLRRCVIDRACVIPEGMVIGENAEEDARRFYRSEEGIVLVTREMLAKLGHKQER
Description: as §1

[8] = molecular target: T7, E. coli ADP-glucose pyrophosphorylase (ADP-Glc PPase) (Escherichia coli, UniProt P0A6V1, R40A); assay: as above; assay type: biochemical; conditions: read-out: PLP / A0.5 /
T7 construct: gene glgC
T7 sequence (P0A6V1 1-431 R40A): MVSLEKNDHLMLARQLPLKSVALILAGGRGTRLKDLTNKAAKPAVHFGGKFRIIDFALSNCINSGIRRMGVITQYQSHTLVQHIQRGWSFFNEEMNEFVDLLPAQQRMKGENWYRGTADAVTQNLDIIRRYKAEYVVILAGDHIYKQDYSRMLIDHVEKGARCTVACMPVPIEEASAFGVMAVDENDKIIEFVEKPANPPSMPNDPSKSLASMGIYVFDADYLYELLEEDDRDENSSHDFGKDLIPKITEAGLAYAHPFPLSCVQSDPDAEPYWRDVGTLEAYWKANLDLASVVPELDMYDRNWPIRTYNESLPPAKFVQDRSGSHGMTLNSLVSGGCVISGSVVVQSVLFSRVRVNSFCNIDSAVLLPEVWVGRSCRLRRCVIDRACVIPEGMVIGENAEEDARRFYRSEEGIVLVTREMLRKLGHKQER
Description: as §1

[9] = molecular target: T8, E. coli ADP-glucose pyrophosphorylase (ADP-Glc PPase) (Escherichia coli, UniProt P0A6V1, R52K); assay: as above; assay type: biochemical; conditions: read-out: PLP / A0.5 /
T8 construct: gene glgC
T8 sequence (P0A6V1 1-431 R52K): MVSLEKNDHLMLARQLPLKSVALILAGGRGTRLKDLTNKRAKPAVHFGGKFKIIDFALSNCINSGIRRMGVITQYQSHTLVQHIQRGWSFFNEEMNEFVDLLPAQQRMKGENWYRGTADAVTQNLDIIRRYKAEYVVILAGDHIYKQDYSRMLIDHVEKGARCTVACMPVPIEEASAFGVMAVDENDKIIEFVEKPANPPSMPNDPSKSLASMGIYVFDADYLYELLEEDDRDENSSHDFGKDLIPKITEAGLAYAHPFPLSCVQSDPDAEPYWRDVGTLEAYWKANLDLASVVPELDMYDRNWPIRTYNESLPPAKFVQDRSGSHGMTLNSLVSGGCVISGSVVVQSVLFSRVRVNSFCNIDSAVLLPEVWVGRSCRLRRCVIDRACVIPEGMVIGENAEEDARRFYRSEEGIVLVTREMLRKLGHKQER
Description: as §1

[10] = substrate: Nc1ncnc2c1ncn2[C@@H]1O[C@H](COP(=O)(O)OP(=O)(O)OP(=O)(O)O)[C@@H](O)[C@H]1O; assay: as above; assay type: biochemical, Escherichia coli; conditions: no activator (control), 1 mM Glc1P, 10 mM MgCl2, 50 mM HEPES pH 8.0
Method: One was measured in absence (control)

[11] = activator, allosteric, 1.0 mM Glc1P, 1.5 mM ATP, 10 mM MgCl2, pH 8.0, read-out: FBP / A0.5 /

`O=P(O)(O)OC[C@H]1OC(O)(COP(=O)(O)O)[C@@H](O)[C@@H]1O` (stereo partly shown) [FBP] was tested. Which ΔTm at 1000 µM [1] did it give?
Its ΔTm at 1000 µM is 13.2 °C.

What about the EC50 [2, 11] of the same molecule?
The EC50 was 27 ± 9 µM.

What about the EC50 [3, 11] of the same molecule?
The EC50 was 67 ± 10 µM.

And the EC50 [4, 11]?
The EC50 was 40 ± 10 µM.

What about the EC50 [5, 11] of the same molecule?
Its EC50 is 1000 ± 130 µM.

What about the EC50 [6, 11] of the same molecule?
Its EC50 is 36 ± 11 µM.

And the EC50 [7, 11]?
The EC50 was 320 ± 50 µM.

`Cc1ncc(COP(=O)(O)O)c(C=O)c1O` [PLP] was tested. Which EC50 ([2]; read-out: PLP / A0.5 /) did it give?
Its EC50 is 0.075 ± 0.004 µM.

And the EC50 ([3]; read-out: PLP / A0.5 /)?
The EC50 was 1.29 ± 0.23 µM.

And the EC50 ([4]; read-out: PLP / A0.5 /)?
The EC50 was 0.16 ± 0.01 µM.

And the EC50 ([5]; read-out: PLP / A0.5 /)?
The EC50 was 4.2 ± 0.6 µM.

And the EC50 [8]?
The EC50 was 0.48 ± 0.22 µM.

What about the EC50 ([6]; read-out: PLP / A0.5 /) of the same molecule?
The EC50 was 0.019 ± 0.005 µM.

And the EC50 ([7]; read-out: PLP / A0.5 /)?
The EC50 was 0.21 ± 0.01 µM.

What about the EC50 [9] of the same molecule?
Its EC50 is 0.22 ± 0.05 µM.

B1: E. coli ADP-glucose pyrophosphorylase (ADP-Glc PPase) (Escherichia coli K-12) (protein)
chain: MVSLEKNDHLMLARQLPLKSVALILAGGRGTRLKDLTNKRAKPAVHFGGKFRIIDFALSNCINSGIRRMGVITQYQSHTLVQHIQRGWSFFNEEMNEFVDLLPAQQRMKGENWYRGTADAVTQNLDIIRRYKAEYVVILAGDHIYKQDYSRMLIDHVEKGARCTVACMPVPIEEASAFGVMAVDENDKIIEFVEKPANPPSMPNDPSKSLASMGIYVFDADYLYELLEEDDRDENSSHDFGKDLIPKITEAGLAYAHPFPLSCVQSDPDAEPYWRDVGTLEAYWKANLDLASVVPELDMYDRNWPIRTYNESLPPAKFVQDRSGSHGMTLNSLVSGGCVISGSVVVQSVLFSRVRVNSFCNIDSAVLLPEVWVGRSCRLRRCVIDRACVIPEGMVIGENAEEDARRFYRSEEGIVLVTREMLRKLGHKQER
B1 was tested. Which K0.5 [10] did it give?
The K0.5 was 1.75 ± 0.09 mM.
